Counter-ions that a name gives are not always drawn.
Assays:
[1] = system: Mouse Ischemic Stroke Model; assay: Infarct volume suppressive and motor function improving effects in mouse ischemic stroke model (Rose Bengal photothrombosis, TTC staining, Rota-rod); type: in vivo; conditions: dose of 10 mg/kg; for infarct volume suppression rate (%): two administrations, measured two days later, TTC staining; for walking time (%): walking time on Rota-Rod with Vehicle 100%, two days later
Protocol: Mouse was fixed under isoflurane anesthesia and the scalp was incised. Rose Bengal (7.5 mg/kg) was administered i.v., and green light (550 nm, Hamamatsu Photonics, K.K.) was immediately irradiated at 2 mm side and 1 mm above the bregma for 5 min. Thereafter, the scalp was bonded with an instant glue. To the test drug and control groups was given the first administration after the mice awoke, and they were subjected to the administration again the next day. Two days later, motor function was evaluated by Rota-rod (up to 60 sec, walking time on Rota-Rod was measured). Then the brain was removed, sliced in 1 mm, the site of infaction was decided by 1% TTC staining and the volume was measured by image analysis. The infarct volume suppression rate (%) and walking time (%) on Rota-Rod with Vehicle 100% at the dose of 10 mg/kg are shown in the following Table. In addition, walking time (sec) on Rota-Rod and infarct volume suppression rate (mm^3) when 3-deazaadenosine was used as a test drug are shown in FIG. 1 and FIG. 2.

[2] = molecular target: T1, Human-recombinant-S-Adenosyl-L-Homocysteine Hydrolase (Homo sapiens, UniProt P23526); assay: Measurement of enzyme inhibitory activity (hydrolysis of S-Adenosyl-L-Homocysteine, HPLC); type: biochemical; conditions: S-Adenosyl-L-Homocysteine 10 μM, pH 7.2, 37° C., 15 min
T1 construct: purchased Diazyme Laboratories
Procedure, shortened: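 Reactions contained recombinant human SAH hydrolase (50 ng), 10 μM S-adenosyl-L-homocysteine and adenosine deaminase (4 units) in 50 mM phosphate buffer, pH 7.2, with 1 mM EDTA, run 15 min at 37 °C. Remaining substrate was measured by reversed-phase HPLC (UV 258 nm). Inhibitory rate compared substrate depletion with versus without compound.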

homocysteine synthesis = assay: Measurement of homocysteine synthesis inhibitory activity in vivo (methionine-loaded mouse, plasma homocysteine); conditions: dose of 10 mg/kg, oral, BALB/c mouse; methionine water 1 hr later; plasma 30 min after; read-out: activity (homocysteine synthesis inhibitory rate)
Protocol: A sample was orally administered to BALB/c mouse and, 1 hr later, methionine water (50 g/L) was orally administered at a proportion of 10 ml/kg. 30 min later, blood samples were collected with heparin from the abdominal vein and plasma was obtained. The plasma homocysteine concentration was measured by treating the plasma with tributylphosphine, removing protein with 10% trichloroacetic acid (TCA), fluorescent labeling the supernatant with 4-fluoro-7-sulfobenzofurazan ammonium salt (SBD-F) under alkali conditions, and quantifying by HPLC. The homocysteine synthesis inhibitory rate of the sample was determined with the difference in the homocysteine value between methionine water-loaded animal and methionine water-unloaded animal as 100%. The detailed conditions of HPLC were as follows.
column used: Wakopak^R HandyODS 150*4.6 mm (Wako Pure Chemical Industries, Ltd.) elution condition: 1.0 ml/min elution solvent: 0.1M phosphate buffer (pH 6.0) 2% methanol wavelength: ex 385 nm em 515 nm

T1 sequence (P23526 whole entry): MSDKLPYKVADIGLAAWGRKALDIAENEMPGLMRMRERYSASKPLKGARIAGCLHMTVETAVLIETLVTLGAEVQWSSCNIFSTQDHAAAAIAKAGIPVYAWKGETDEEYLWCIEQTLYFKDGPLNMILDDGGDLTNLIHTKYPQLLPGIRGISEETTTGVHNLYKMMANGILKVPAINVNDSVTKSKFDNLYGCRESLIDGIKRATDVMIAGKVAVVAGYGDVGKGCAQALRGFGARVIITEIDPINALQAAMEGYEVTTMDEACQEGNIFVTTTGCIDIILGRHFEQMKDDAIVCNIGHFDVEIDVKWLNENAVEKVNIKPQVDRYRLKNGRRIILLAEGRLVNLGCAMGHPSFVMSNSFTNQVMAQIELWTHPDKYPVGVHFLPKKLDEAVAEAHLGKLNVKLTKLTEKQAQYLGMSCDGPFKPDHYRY

| SMILES | infarct volume suppression rate (%) [1] [%] | walking time (%) [1] [%] | IC50 [2] [nM] | inhibition in vivo at 10 mg/kg (homocysteine synthesis) [%] |
| --- | --- | --- | --- | --- |
| CCNCCNC(=O)CN(CC(=O)N(C)N1Cc2ccc(F)cc2C1)c1cc2cnn(CC(F)F)c2cc1C [Example 253, N^2-[1-(2,2-difluoroethyl)-6-methyl-1H-indazol-5-yl]-N^2-{2-[(5-fluoro-1,3-dihydro-2H-isoindol-2-yl)(methyl)amino]-2-oxoethyl}-N^1-[2-(ethylamino)ethyl]glycinamide hydrochloride] | 16 | 230 | 20 | ≥ 40 |
| Nc1nccc2c1ncn2[C@@H]1O[C@H](CO)[C@@H](O)[C@H]1O [3-deazaadenosine, reference compound] | 14 | 170 | – | – |
| CCNCCNC(=O)CN(CC(=O)N(C)N1Cc2ccc(F)cc2C1)c1cc2c(cc1C)CCC2=O [Example 215, N^2-{2-[(5-fluoro-1,3-dihydro-2H-isoindol-2-yl)(methyl)amino]-2-oxoethyl}-N^2-(6-methyl-3-oxo-2,3-dihydro-1H-inden-5-yl)-N^1-[2-(ethylamino)ethyl]glycinamide] | 19 | 340 | 47 | ≥ 40 |
| CCNCCNC(=O)CN(CC(=O)N(C)N1Cc2ccc(F)cc2C1)c1cc(-c2noc(C)n2)ccc1C.Cl [Example 20, N^2-{2-[(5-fluoro-1,3-dihydro-2H-isoindol-2-yl)(methyl)amino]-2-oxoethyl}-N^2-[2-methyl-5-(5-methyl-1,2,4-oxadiazol-3-yl)phenyl]-N^1-[2-(ethylamino)ethyl]glycinamide] | 26 | 240 | 39 | ≥ 40 |
| CCNCCNC(=O)CN(CC(=O)N(C)N1Cc2ccccc2C1)c1ccc(-c2noc(C)n2)cc1C [Example 65, N^2-{2-[1,3-dihydro-2H-isoindol-2-yl(methyl)amino]-2-oxoethyl}-N^2-[2-methyl-4-(5-methyl-1,2,4-oxadiazol-3-yl)phenyl]-N^1-[2-(ethylamino)ethyl]glycinamide] | 30 | 250 | 47 | ≥ 40 |
| CCNCCNC(=O)CN(CC(=O)N(C)N1Cc2ccc(F)cc2C1)c1cc2c(C)noc2cc1C [Example 183, N^2-(3,6-dimethyl-1,2-benzisoxazol-5-yl)-N^2-{2-[(5-fluoro-1,3-dihydro-2H-isoindol-2-yl)(methyl)amino]-2-oxoethyl}-N^1-[2-(ethylamino)ethyl]glycinamide dihydrochloride] | 22 | 240 | – | – |
| CCNCCNC(=O)CN(CC(=O)N(C)N1Cc2ccc(F)cc2C1)c1cc2cnn(C)c2cc1C [Example 244, N^2-(1,6-dimethyl-1H-indazol-5-yl)-N^2-{2-[(5-fluoro-1,3-dihydro-2H-isoindol-2-yl)(methyl)amino]-2-oxoethyl}-N^1-[2-(ethylamino)ethyl]glycinamide hydrochloride] | 26 | 330 | – | ≥ 40 |

— patent US20120196824A1, “THERAPEUTIC AGENT FOR CEREBRAL INFARCTION” (MITSUBISHI TANABE PHARMA CORPORATION, priority 2009, published 2012)
